In patent US8697683B2, “Azetidinyl diamides as monoacylglycerol lipase inhibitors” (Janssen Pharmaceutica, NV, priority 2009, dated 2014):

These compounds were tested against T1, MGL (Rattus norvegicus, UniProt Q8R431) (assay: 2-AG Accumulation Assay (rat brain homogenate)). Details: compound 1 μM, percent of vehicle 2-AG accumulation.
T1 construct: one g rat brain was homogenized
T1 sequence (Q8R431 1-303): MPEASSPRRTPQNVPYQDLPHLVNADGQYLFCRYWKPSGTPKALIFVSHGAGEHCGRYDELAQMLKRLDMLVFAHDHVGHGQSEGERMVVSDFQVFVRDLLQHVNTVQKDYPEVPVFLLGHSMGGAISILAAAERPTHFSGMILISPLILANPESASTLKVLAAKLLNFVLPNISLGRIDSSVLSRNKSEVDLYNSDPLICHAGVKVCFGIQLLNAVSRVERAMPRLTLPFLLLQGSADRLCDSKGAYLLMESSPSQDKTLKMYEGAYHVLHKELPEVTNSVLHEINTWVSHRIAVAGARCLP
Format: biochemical

| SMILES | Rat Brain 2AG % VehCntrl (%) @1 μM |
| --- | --- |
| O=C(c1ccc(-c2nc(-c3cccc(C(F)(F)F)c3)cs2)cc1)N1CC(N2CCN(C(=O)c3nccs3)CC2)C1 [Cpd 1332] | 1168% |
| O=C(c1nccs1)N1CCN(C2CN(C(=O)c3ccc4c(ccn4-c4ccc(F)cc4)c3F)C2)CC1 [Cpd 1348, 4-Fluoro-1-(4-fluorophenyl)-5-({3-[4-(1,3-thiazol-2-ylcarbonyl)piperazin-1-yl]azetidin-1-yl}carbonyl)-1H-indole] | 1428% |
| O=C(c1ccc2nc(-c3cccc(C(F)(F)F)c3)oc2c1)N1CC(N2CCN(C(=O)c3nccs3)CC2)C1 [Cpd 1158, 6-({3-[4-(1,3-Thiazol-2-ylcarbonyl)piperazin-1-yl]azetidin-1-yl}carbonyl)-2-[3-(trifluoromethyl)phenyl]-1,3-benzoxazole] | 1623% |
| O=C(c1ccc2c(-c3ccccc3)cccc2c1)N1CC(N2CCN(C(=O)c3nccs3)CC2)C1 [Cpd 338, 1-{1-[(5-Phenylnaphthalen-2-yl)carbonyl]azetidin-3-yl}-4-(1,3-thiazol-2-ylcarbonyl)piperazine] | 2111% |
| O=C(c1ccc2c(ccn2-c2ccc(C(F)(F)F)cc2)c1)N1CC(N2CCN(C(=O)c3nccs3)CC2)C1 [Cpd 1357, 5-({3-[4-(1,3-Thiazol-2-ylcarbonyl)piperazin-1-yl]azetidin-1-yl}carbonyl)-1-[4-(trifluoromethyl)phenyl]-1H-indole] | 2570% |
| O=C(c1ccc2c(ccn2-c2ccc(F)cc2)c1)N1CC(N2CCN(C(=O)c3cscn3)CC2)C1 [Cpd 1358, 1-(4-Fluorophenyl)-5-({3-[4-(1,3-thiazol-4-ylcarbonyl)piperazin-1-yl]azetidin-1-yl}carbonyl)-1H-indole] | 1183% |
| O=C(c1nccs1)N1CCN(C2CN(C(=O)c3ccc(-c4cccc(C(F)(F)F)c4)cc3Cl)C2)CC1 [Cpd 250, 1-(1-{[3-Chloro-3′-(trifluoromethyl)biphenyl-4-yl]carbonyl}azetidin-3-yl)-4-(1,3-thiazol-2-ylcarbonyl)piperazine] | 1011% |
| O=C(c1ccc(OCc2ccc3ccccc3n2)cc1)N1CC(N2CCN(C(=O)c3nccs3)CC2)C1 [Cpd 967] | 1373% |
| O=C(c1ccc(Cc2cccc(C(F)(F)F)c2)cc1)N1CC(N2CCN(C(=O)c3nccs3)CC2)C1 [Cpd 995] | 1080% |
| Cn1cc(-c2cccc(C(F)(F)F)c2)c2ccc(C(=O)N3CC(N4CCN(C(=O)c5cscn5)CC4)C3)cc21 [Cpd 1084] | 1165% |
| Cn1cc(-c2ccc(F)cc2)c2ccc(C(=O)N3CC(N4CCN(C(=O)c5nccs5)CC4)C3)cc21 [Cpd 1318, 3-(4-Fluorophenyl)-1-methyl-6-({3-[4-(1,3-thiazol-2-ylcarbonyl)piperazin-1-yl]azetidin-1-yl}carbonyl)-1H-indole] | 1282% |
| Cn1cc(Cc2ccc(F)cc2)c2ccc(C(=O)N3CC(N4CCN(C(=O)c5nccs5)CC4)C3)cc21 [Cpd 1026] | 1014% |
| O=C(c1ccc(-c2cccc(C(F)(F)F)c2)cc1)N1CC(N2CCN(C(=O)c3nccs3)CC2)C1 [Cpd 237, 1-(1,3-Thiazol-2-ylcarbonyl)-4-(1-{[3′-(trifluoromethyl)biphenyl-4-yl]carbonyl}azetidin-3-yl)piperazine] | 1044% |
| Cc1cn(-c2ccccc2)c2ccc(C(=O)N3CC(N4CCN(C(=O)c5nccs5)CC4)C3)cc12 [Cpd 1054] | 1008% |
| O=C(c1nccs1)N1CCN(C2CN(C(=O)c3sc4cc(-c5ccccc5)ccc4c3Cl)C2)CC1 [Cpd 343, 1-{1-[(3-Chloro-6-phenyl-1-benzothiophen-2-yl)carbonyl]azetidin-3-yl}-4-(1,3-thiazol-2-ylcarbonyl)piperazine] | 1371% |
| Cc1c(Cc2ccc(C(F)(F)F)cc2)cccc1C(=O)N1CC(N2CCN(C(=O)c3nccs3)CC2)C1 [Cpd 1008] | 1125% |
| Cc1c(C(=O)N2CC(N3CCN(C(=O)c4nccs4)CC3)C2)sc2cc(C(F)(F)F)ccc12 [Cpd 899, 1-(1-{[3-Methyl-6-(trifluoromethyl)-1-benzothiophen-2-yl]carbonyl}azetidin-3-yl)-4-(1,3-thiazol-2-ylcarbonyl)piperazine] | 1092% |
| Cc1c(C(=O)N2CC(N3CCN(C(=O)c4nccs4)CC3)C2)sc2ccc(C(F)(F)F)cc12 [Cpd 897] | 1234% |
| O=C(c1ccc2nc(N3CCC(F)(F)CC3)sc2c1)N1CC(N2CCN(C(=O)c3nccs3)CC2)C1 [Cpd 671] | 1035% |
| O=C(c1ccc2c(c1)CCN2Cc1ccccc1)N1CC(N2CCN(C(=O)c3nccs3)CC2)C1 [Cpd 994, 1-Benzyl-5-({3-[4-(1,3-thiazol-2-ylcarbonyl)piperazin-1-yl]azetidin-1-yl}carbonyl)-2,3-dihydro-1H-indole] | 1014% |
| O=C(c1ccc2c(c1)CCCN2Cc1ccc(C(F)(F)F)cc1)N1CC(N2CCN(C(=O)c3nccs3)CC2)C1 [Cpd 371, 6-({3-[4-(1,3-Thiazol-2-ylcarbonyl)piperazin-1-yl]azetidin-1-yl}carbonyl)-1-(4-trifluoromethylbenzyl)-1,2,3,4-tetrahydroquinoline] | 1138% |
| O=C(c1ccc(CSc2cccc(Cl)c2)cc1)N1CC(N2CCN(C(=O)c3nccs3)CC2)C1 [Cpd 454] | 1066% |
| Cn1cc(-c2ccccc2)c2ccc(C(=O)N3CC(N4CCN(C(=O)c5nccs5)CC4)C3)cc21 [Cpd 1132, 1-Methyl-3-phenyl-6-({3-[4-(1,3-thiazol-2-ylcarbonyl)piperazin-1-yl]azetidin-1-yl}carbonyl)-1H-indole] | 1259% |
| O=C(c1ccc(OCc2cccc(Cl)c2)cc1)N1CC(N2CCN(C(=O)c3nccs3)CC2)C1 [Cpd 957] | 1442% |

Same assay, conditions: compound 10 μM, percent of vehicle 2-AG accumulation

| SMILES | Rat Brain 2AG % VehCntrl (%) @10 μM |
| --- | --- |
| O=C(c1ccc(-c2ccc([N+](=O)[O-])cc2)cc1)N1CC(N2CCN(C(=O)c3nccs3)CC2)C1 [Cpd 215, 1-{1-[(4′-Nitrobiphenyl-4-yl)carbonyl]azetidin-3-yl}-4-(1,3-thiazol-2-ylcarbonyl)piperazine] | 1091% |
| O=C(c1nccs1)N1CCN(C2CN(C(=O)c3ccc(-c4cccc(C(F)(F)F)c4)cc3Cl)C2)CC1 [Cpd 250, 1-(1-{[3-Chloro-3′-(trifluoromethyl)biphenyl-4-yl]carbonyl}azetidin-3-yl)-4-(1,3-thiazol-2-ylcarbonyl)piperazine] | 1327% |
| O=C(c1ccc(-c2cccc([N+](=O)[O-])c2)cc1)N1CC(N2CCN(C(=O)c3nccs3)CC2)C1 [Cpd 183, 1-{1-[(3′-Nitrobiphenyl-4-yl)carbonyl]azetidin-3-yl}-4-(1,3-thiazol-2-ylcarbonyl)piperazine] | 1090% |
| Cc1cccc(-c2ccc(C(=O)N3CC(N4CCN(C(=O)c5nccs5)CC4)C3)cc2)c1 [Cpd 176, 1-{1-[(3′-Methylbiphenyl-4-yl)carbonyl]azetidin-3-yl}-4-(1,3-thiazol-2-ylcarbonyl)piperazine] | 1124% |
| O=C(c1ccccc1)N1CCN(C2CN(C(=O)c3ccc4nc(-c5cccc(C(F)(F)F)c5)oc4c3)C2)CC1 [Cpd 131, 6-({3-[4-(Phenylcarbonyl)piperazin-1-yl]azetidin-1-yl}carbonyl)-2-[3-(trifluoromethyl)phenyl]-1,3-benzoxazole] | 1406% |
| CN(C)S(=O)(=O)Nc1cccc(-c2ccc(C(=O)N3CC(N4CCN(C(=O)c5ccccc5)CC4)C3)cc2)c1 [Cpd 205, N,N-Dimethyl-N′-[4′-({3-[4-(phenylcarbonyl)piperazin-1-yl]azetidin-1-yl}carbonyl)biphenyl-3-yl]sulfamide] | 1172% |
| CN(CC1CCCCC1)c1ccc(CCC(=O)N2CC(N3CCN(C(=O)c4nccs4)CC3)C2)cc1 [Cpd 291, N-(Cyclohexylmethyl)-N-methyl-4-(3-oxo-3-{3-[4-(1,3-thiazol-2-ylcarbonyl)piperazin-1-yl]azetidin-1-yl}propyl)aniline] | 1019% |
| O=C(c1ccc(-c2ccc3ccccc3c2)cc1)N1CC(N2CCN(C(=O)c3nccs3)CC2)C1 [Cpd 182, 1-{1-[(4-Naphthalen-2-ylphenyl)carbonyl]azetidin-3-yl}-4-(1,3-thiazol-2-ylcarbonyl)piperazine] | 1500% |
| O=C(c1ccc(-c2cccc(C(F)(F)F)c2)cc1)N1CC(N2CCN(C(=O)c3nccs3)CC2)C1 [Cpd 237, 1-(1,3-Thiazol-2-ylcarbonyl)-4-(1-{[3′-(trifluoromethyl)biphenyl-4-yl]carbonyl}azetidin-3-yl)piperazine] | 1182% |
| CC(=O)c1ccc(-c2ccc(C(=O)N3CC(N4CCN(C(=O)c5nccs5)CC4)C3)cc2)cc1 [Cpd 209, 1-[4′-({3-[4-(1,3-Thiazol-2-ylcarbonyl)piperazin-1-yl]azetidin-1-yl}carbonyl)biphenyl-4-yl]ethanone] | 1681% |
| O=C(c1ccc(-c2ccc3c(c2)OCO3)cc1)N1CC(N2CCN(C(=O)c3nccs3)CC2)C1 [Cpd 181, 1-(1-{[4-(1,3-Benzodioxol-5-yl)phenyl]carbonyl}azetidin-3-yl)-4-(1,3-thiazol-2-ylcarbonyl)piperazine] | 1236% |
| O=C(c1ccc(SCc2cccc(Cl)c2)cc1)N1CC(N2CCN(C(=O)c3nccs3)CC2)C1 [Cpd 412, 1-[1-({4-[(3-Chlorobenzyl)sulfanyl]phenyl}carbonyl)azetidin-3-yl]-4-(1,3-thiazol-2-ylcarbonyl)piperazine] | 1271% |
| O=C(c1ccc(-c2ccc(F)cc2)cc1)N1CC(N2CCN(C(=O)c3nccs3)CC2)C1 [Cpd 174, 1-{1-[(4′-Fluorobiphenyl-4-yl)carbonyl]azetidin-3-yl}-4-(1,3-thiazol-2-ylcarbonyl)piperazine] | 1258% |
| O=C(c1ccc(-c2ccccc2)cc1)N1CC(N2CCN(C(=O)c3nccs3)CC2)C1 [Cpd 9, 1-[1-(Biphenyl-4-ylcarbonyl)azetidin-3-yl]-4-(1,3-thiazol-2-ylcarbonyl)piperazine] | 1026% |
